Source: ChEMBL document CHEMBL3885881, “DrugMatrix”

Organism: Rattus norvegicus
Format: toxicity, organism-based, Sprague-Dawley
Conditions: in vivo, po, route oral GAVAGE, […]; for ABSOLUTE EOSINOPHIL / ABSOLUTE LYMPHOCYTE / ABSOLUTE MONOCYTE / ABSOLUTE SEGMENTED NEUTROPHIL / BASOPHIL / EOSINOPHIL / ERYTHROCYTE COUNT / HEMATOCRIT / HEMOGLOBIN / LEUKOCYTE COUNT / LYMPHOCYTE / MEAN CORPUSCULAR HEMOGLOBIN / MEAN CORPUSCULAR HEMOGLOBIN CONCENTRATION / MEAN CORPUSCULAR VOLUME / MONOCYTE / NEUTROPHIL / NUCLEATED RED BLOOD CELLS / PLATELET COUNT: tissue Blood; for ALANINE AMINOTRANSFERASE / ALBUMIN / ALKALINE PHOSPHATASE / ASPARTATE AMINOTRANSFERASE / BLOOD UREA NITROGEN / CARBON DIOXIDE / CHLORIDE / CHOLESTEROL / CREATINE PHOSPHOKINASE / CREATININE / GLUCOSE / LACTATE DEHYDROGENASE / LIPASE / PHOSPHORUS / POTASSIUM / SODIUM / TOTAL BILIRUBIN / TOTAL PROTEIN / URIC ACID: tissue Plasma
[1] = 0 mg/kg, 6 h, vehicle control, dose level Control, time 0.25 day
[2] = 0 mg/kg, 24 h, vehicle control, dose level Control, time 1 day
[3] = 30 mg/kg, 6 h, dose level Low, time 0.25 day

Description: DrugMatrix - Regimen: Single

S=C=Nc1cccc2ccccc12 [1-NAPHTHYLISOTHIOCYANATE]
ABSOLUTE EOSINOPHIL [1]: 61.17 CELLS/uL | ABSOLUTE LYMPHOCYTE [1]: 12625.83 CELLS/uL | ABSOLUTE MONOCYTE [1]: 417.17 CELLS/uL | ABSOLUTE SEGMENTED NEUTROPHIL [1]: 1595.83 CELLS/uL | BASOPHIL [1]: 0% | EOSINOPHIL [1]: 0.33% | ERYTHROCYTE COUNT [1]: 5.46 x10E6/uL | HEMATOCRIT [1]: 36.02% | HEMOGLOBIN [1]: 13.55 G/DL | LEUKOCYTE COUNT [1]: 14.7 x10E3/uL | LYMPHOCYTE [1]: 85.83% | MEAN CORPUSCULAR HEMOGLOBIN [1]: 24.87 pg | MEAN CORPUSCULAR HEMOGLOBIN CONCENTRATION [1]: 37.65 G/DL | MEAN CORPUSCULAR VOLUME [1]: 66.03 fL | MONOCYTE [1]: 2.67% | NEUTROPHIL [1]: 11.17% | NUCLEATED RED BLOOD CELLS [1]: 0 /100WBC | PLATELET COUNT [1]: 1072.33 x10E3/uL | ALANINE AMINOTRANSFERASE [1]: 63.33 u/L | ALBUMIN [1]: 4.58 G/DL | ALKALINE PHOSPHATASE [1]: 285 u/L | ASPARTATE AMINOTRANSFERASE [1]: 116.5 u/L | BLOOD UREA NITROGEN [1]: 9.17 mg/dL | CARBON DIOXIDE [1]: 18.83 mmol/L | CHLORIDE [1]: 104.5 MEQ/L | CHOLESTEROL [1]: 68.67 mg/dL | CREATINE PHOSPHOKINASE [1]: 421 u/L | CREATININE [1]: 0.58 mg/dL | GLUCOSE [1]: 160.67 mg/dL | LACTATE DEHYDROGENASE [1]: 396 u/L | LIPASE [1]: 10.33 u/L | PHOSPHORUS [1]: 12.25 mg/dL | POTASSIUM [1]: 6.42 MEQ/L | SODIUM [1]: 142.77 MEQ/L | TOTAL BILIRUBIN [1]: 0.25 mg/dL | TOTAL PROTEIN [1]: 5.48 G/DL | URIC ACID [1]: 1.65 mg/dL | ABSOLUTE EOSINOPHIL [2]: 23.83 CELLS/uL | ABSOLUTE LYMPHOCYTE [2]: 11026.5 CELLS/uL | ABSOLUTE MONOCYTE [2]: 98.5 CELLS/uL | ABSOLUTE SEGMENTED NEUTROPHIL [2]: 667.83 CELLS/uL | BASOPHIL [2]: 0% | EOSINOPHIL [2]: 0.17% | ERYTHROCYTE COUNT [2]: 4.92 x10E6/uL | HEMATOCRIT [2]: 31.9% | HEMOGLOBIN [2]: 12.6 G/DL | LEUKOCYTE COUNT [2]: 11.82 x10E3/uL | LYMPHOCYTE [2]: 93% | MEAN CORPUSCULAR HEMOGLOBIN [2]: 25.7 pg | MEAN CORPUSCULAR HEMOGLOBIN CONCENTRATION [2]: 39.57 G/DL | MEAN CORPUSCULAR VOLUME [2]: 64.97 fL | MONOCYTE [2]: 0.83% | NEUTROPHIL [2]: 6% | NUCLEATED RED BLOOD CELLS [2]: 0 /100WBC | PLATELET COUNT [2]: 872.33 x10E3/uL | ALANINE AMINOTRANSFERASE [2]: 82.67 u/L | ALBUMIN [2]: 4.17 G/DL | ALKALINE PHOSPHATASE [2]: 321.83 u/L | ASPARTATE AMINOTRANSFERASE [2]: 99.5 u/L | BLOOD UREA NITROGEN [2]: 13.33 mg/dL | CARBON DIOXIDE [2]: 33.67 mmol/L | CHLORIDE [2]: 99.83 MEQ/L | CHOLESTEROL [2]: 64 mg/dL | CREATINE PHOSPHOKINASE [2]: 275.33 u/L | CREATININE [2]: 0.21 mg/dL | GLUCOSE [2]: 146.17 mg/dL | LACTATE DEHYDROGENASE [2]: 101 u/L | LIPASE [2]: 9.83 u/L | PHOSPHORUS [2]: 8.82 mg/dL | POTASSIUM [2]: 5.51 MEQ/L | SODIUM [2]: 143.2 MEQ/L | TOTAL BILIRUBIN [2]: 0.18 mg/dL | TOTAL PROTEIN [2]: 5.83 G/DL | URIC ACID [2]: 0.63 mg/dL | ABSOLUTE EOSINOPHIL [3]: 14.83 CELLS/uL | ABSOLUTE LYMPHOCYTE [3]: 9035 CELLS/uL | ABSOLUTE MONOCYTE [3]: 384.17 CELLS/uL | ABSOLUTE SEGMENTED NEUTROPHIL [3]: 1199.33 CELLS/uL | BASOPHIL [3]: 0% | EOSINOPHIL [3]: 0.17% | ERYTHROCYTE COUNT [3]: 5.6 x10E6/uL | HEMATOCRIT [3]: 38.25% | HEMOGLOBIN [3]: 13.8 G/DL | LEUKOCYTE COUNT [3]: 10.63 x10E3/uL | LYMPHOCYTE [3]: 85.5% | MEAN CORPUSCULAR HEMOGLOBIN [3]: 24.68 pg | MEAN CORPUSCULAR HEMOGLOBIN CONCENTRATION [3]: 36.08 G/DL | MEAN CORPUSCULAR VOLUME [3]: 68.37 fL | MONOCYTE [3]: 3.67% | NEUTROPHIL [3]: 10.67% | NUCLEATED RED BLOOD CELLS [3]: 0 /100WBC | PLATELET COUNT [3]: 1129.33 x10E3/uL | ALANINE AMINOTRANSFERASE [3]: 63.33 u/L | ALBUMIN [3]: 4.7 G/DL | ALKALINE PHOSPHATASE [3]: 419.67 u/L | ASPARTATE AMINOTRANSFERASE [3]: 128.33 u/L | BLOOD UREA NITROGEN [3]: 10.5 mg/dL | CARBON DIOXIDE [3]: 14.83 mmol/L | CHLORIDE [3]: 104.17 MEQ/L | CHOLESTEROL [3]: 78.67 mg/dL | CREATINE PHOSPHOKINASE [3]: 651.17 u/L | CREATININE [3]: 0.27 mg/dL | GLUCOSE [3]: 216.83 mg/dL | LACTATE DEHYDROGENASE [3]: 402.17 u/L | LIPASE [3]: 11.67 u/L | PHOSPHORUS [3]: 17.25 mg/dL | POTASSIUM [3]: 7.07 MEQ/L | SODIUM [3]: 146.68 MEQ/L | TOTAL BILIRUBIN [3]: 0.23 mg/dL | TOTAL PROTEIN [3]: 6.17 G/DL | URIC ACID [3]: 3.28 mg/dL
